# According to patent US20260258064A1 (SIRONAX LTD., priority 2023, published 2026):
# Target: T1, SARM1 (50-724) (Homo sapiens, UniProt Q6SZW1)
# T1 construct: Purified SARM1 (50-724) with a final concentration of 2 nM was pre-incubated with a test compound
# T1 sequence (Q6SZW1 50-724): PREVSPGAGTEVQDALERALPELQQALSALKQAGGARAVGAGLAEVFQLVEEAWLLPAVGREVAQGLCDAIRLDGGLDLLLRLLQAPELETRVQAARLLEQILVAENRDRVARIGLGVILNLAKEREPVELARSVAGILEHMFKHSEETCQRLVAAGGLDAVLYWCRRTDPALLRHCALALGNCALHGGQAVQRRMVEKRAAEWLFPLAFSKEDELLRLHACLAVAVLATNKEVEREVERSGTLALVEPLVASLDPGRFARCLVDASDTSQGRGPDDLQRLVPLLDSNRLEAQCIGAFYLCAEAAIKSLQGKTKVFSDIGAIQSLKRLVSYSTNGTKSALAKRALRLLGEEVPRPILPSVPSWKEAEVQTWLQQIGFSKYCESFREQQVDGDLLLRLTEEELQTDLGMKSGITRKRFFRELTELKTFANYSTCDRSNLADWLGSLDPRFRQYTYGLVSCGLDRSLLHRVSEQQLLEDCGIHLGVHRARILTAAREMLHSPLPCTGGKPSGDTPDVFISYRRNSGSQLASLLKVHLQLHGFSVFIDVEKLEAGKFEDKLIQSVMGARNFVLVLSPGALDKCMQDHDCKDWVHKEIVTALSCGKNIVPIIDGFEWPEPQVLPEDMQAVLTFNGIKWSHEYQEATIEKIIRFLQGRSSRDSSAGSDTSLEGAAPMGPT
# Assay: SARM1 (50-724) enzymatic assay (LC-MS/MS)
# Assay type: biochemical
# Details: Purified SARM1 (50-724) 2 nM, NMN as activator, NAD+ as substrate, 1 h at room temperature, read-out: IC50 (SARM1 inhibitory activity)
# Procedure, shortened: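 Human SARM1 (50-724), 2 nM, pre-incubated 15 min at room temperature with compound in Dulbecco's PBS. Reaction started with 200 µM NMN (activator) plus […] NAD^+ substrate, run 1 h at room temperature, quenched with 70% acetonitrile. Turnover quantified by LC-MS/MS; IC50 reported.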
row,SMILES,IC50
1,"CS(=O)(=O)CCc1cc(-n2cnnc2-c2nc3cc(C(F)(F)F)ccc3[nH]2)c(OC(F)(F)F)cn1 [Compound 254, 2-(4-(2-(2-(methylsulfonyl)ethyl)-5-(trifluoromethoxy)pyridin-4-yl)-4H-1,2,4-triazol-3-yl)-5-(trifluoromethyl)-1H-benzo[d]imidazole]",≤ 100 nM
2,"CC(C)(O)COc1ccc(OC(F)(F)F)c(-n2cnnc2-c2nc3cc(C(F)(F)F)ccc3[nH]2)n1 [Compound 255, 2-methyl-1-((5-(trifluoromethoxy)-6-(3-(5-(trifluoromethyl)-1 H-benzo[d]imidazol-2-yl)-4H-1,2,4-triazol-4-yl)pyridin-2-yl)oxy)propan-2-ol]",≤ 100 nM
3,"CC(C)(O)CCOc1ccc(OC(F)(F)F)c(-n2cnnc2-c2nc3cc(C(F)(F)F)ccc3[nH]2)n1 [Compound 256, 2-methyl-4-((5-(trifluoromethoxy)-6-(3-(5-(trifluoromethyl)-1H-benzo[d]imidazol-2-yl)-4H-1,2,4-triazol-4-yl)pyridin-2-yl)oxy)butan-2-ol]",≤ 100 nM
4,"Cn1ncc(C(F)(F)F)c1-n1cnnc1-c1nc2cc(C(F)(F)F)ccc2[nH]1 [Compound 257, 2-(4-(1-methyl-4-(trifluoromethyl)-1H-pyrazol-5-yl)-4H-1,2,4-triazol-3-yl)-5-(trifluoromethyl)-1H-benzo[d]imidazole]",≤ 100 nM
5,"FC(F)(F)c1ccc2[nH]c(-c3nncn3-c3cnccc3C(F)(F)F)cc2c1 [Compound 258, 5-(trifluoromethyl)-2-(4-(4-(trifluoromethyl)pyridin-3-yl)-4H-1,2,4-triazol-3-yl)-1H-indole]",≤ 100 nM
6,"Fc1c(-c2nncn2-c2cnccc2C(F)(F)F)[nH]c2ccc(C(F)(F)F)cc12 [Compound 259, 3-fluoro-5-(trifluoromethyl)-2-(4-(4-(trifluoromethyl)pyridin-3-yl)-4H-1,2,4-triazol-3-yl)-1H-indole]",≤ 100 nM
7,"CC(F)(F)c1ccncc1-n1cnnc1-c1nc2cc(C(F)(F)F)ccc2[nH]1 [Compound 260, 2-(4-(4-(1,1-Difluoroethyl)pyridin-3-yl)-4H-1,2,4-triazol-3-yl)-5-(trifluoromethyl)-1H-benzo[d]imidazole]",≤ 100 nM
8,"OCc1cccc(OC(F)(F)F)c1-n1cnnc1-c1nc2cc(C(F)(F)F)ccc2[nH]1 [Compound 261, (3-(trifluoromethoxy)-2-(3-(5-(trifluoromethyl)-1H-benzo[d]imidazol-2-yl)-4H-1,2,4-triazol-4-yl)phenyl)methanol]",≤ 100 nM
9,"FC(F)(F)Oc1cnc(CC2COC2)cc1-n1cnnc1-c1nc2cc(C(F)(F)F)ccc2[nH]1 [Compound 262, 2-(4-(2-(oxetan-3-ylmethyl)-5-(trifluoromethoxy)pyridin-4-yl)-4H-1,2,4-triazol-3-yl)-5-(trifluoromethyl)-1H-benzo[d]imidazole]",≤ 100 nM
10,"OCCOc1cc(-n2cnnc2-c2nc3cc(C(F)(F)F)ccc3[nH]2)c(OC(F)(F)F)cc1F [Compound 263, 2-(2-fluoro-4-(trifluoromethoxy)-5-(3-(5-(trifluoromethyl)-1H-benzo[d]imidazol-2-yl)-4H-1,2,4-triazol-4-yl)phenoxy)ethan-1-ol]",≤ 100 nM
11,"FC(F)(F)Oc1cnc(-n2cccn2)cc1-n1cnnc1-c1nc2cc(C(F)(F)F)ccc2[nH]1 [Compound 264, 2-(4-(2-(1H-pyrazol-1-yl)-5-(trifluoromethoxy)pyridin-4-yl)-4H-1,2,4-triazol-3-yl)-5-(trifluoromethyl)-1H-benzo[d]imidazole]",≤ 100 nM
12,OCCc1cc(-n2cnnc2-c2nc3cc(C(F)(F)F)ccc3[nH]2)c(OC(F)(F)F)cn1 [Compound 265],≤ 100 nM
13,"O=C(O)c1cc(-n2cnnc2-c2nc3cc(C(F)(F)F)ccc3[nH]2)c(OC(F)(F)F)cn1 [Compound 266, 5-(trifluoromethoxy)-4-(3-(5-(trifluoromethyl)-1H-benzo[d]imidazol-2-yl)-4H-1,2,4-triazol-4-yl)picolinic acid]",≤ 100 nM
14,CS(=O)(=O)CCOc1ccc(OC(F)(F)F)c(-n2cnnc2-c2nc3cc(C(F)(F)F)ccc3[nH]2)n1 [Compound 267],≤ 100 nM
15,"Cc1nocc1-n1cnnc1-c1nc2cc(C(F)(F)F)ccc2[nH]1 [Compound 269, 3-methyl-4-(3-(5-(trifluoromethyl)-1H-benzo[d]imidazol-2-yl)-4H-1,2,4-triazol-4-yl)isoxazole]",> 1000 nM
16,"Fc1cc(C2CC2)cc2nc(-c3nncn3-c3cnccc3C(F)(F)F)[nH]c12 [Compound 270, 5-cyclopropyl-7-fluoro-2-(4-(4-(trifluoromethyl)pyridin-3-yl)-4H-1,2,4-triazol-3-yl)-1H-benzo[d]imidazole]",≤ 100 nM
17,"FC(F)(F)Oc1ccc(OC2COC2)cc1-n1cnnc1-c1nc2cc(C(F)(F)F)ccc2[nH]1 [Compound 271, 2-(4-(5-(oxetan-3-yloxy)-2-(trifluoromethoxy)phenyl)-4H-1,2,4-triazol-3-yl)-5-(trifluoromethyl)-1H-benzo[d]imidazole]",≤ 100 nM
18,"Cc1ncsc1-n1cnnc1-c1nc2cc(C(F)(F)F)ccc2[nH]1 [Compound 272, 4-methyl-5-(3-(5-(trifluoromethyl)-1H-benzo[d]imidazol-2-yl)-4H-1,2,4-triazol-4-yl)thiazole]",> 1000 nM
19,"FC(F)(F)c1ccc2[nH]c(-c3oncc3-c3cccc(Cl)c3Cl)nc2c1 [Compound 273, 4-(2,3-dichlorophenyl)-5-(5-(trifluoromethyl)-1H-benzo[d]imidazol-2-yl)isoxazole]",100 to 500 nM
20,"FC(F)(F)c1ccc2[nH]c(-c3n[nH]nc3-c3cccc(Cl)c3Cl)nc2c1 [Compound 274, 2-(5-(2,3-dichlorophenyl)-2H-1,2,3-triazol-4-yl)-5-(trifluoromethyl)-1H-benzo[d]imidazole]",500 to 1000 nM
21,"FC(F)(F)Oc1ccc(OC2CC2)cc1-n1cnnc1-c1nc2cc(C(F)(F)F)ccc2[nH]1 [Compound 275, 2-(4-(5-cyclopropoxy-2-(trifluoromethoxy)phenyl)-4H-1,2,4-triazol-3-yl)-5-(trifluoromethyl)-1H-benzo[d]imidazole]",≤ 100 nM
22,"C=Cc1ccc2[nH]c(-c3nncn3-c3cnccc3C(F)(F)F)nc2c1 [Compound 276, 2-(4-(4-(trifluoromethyl)pyridin-3-yl)-4H-1,2,4-triazol-3-yl)-5-vinyl-1H-benzo[d]imidazole]",≤ 100 nM
23,"CCc1ccc2[nH]c(-c3nncn3-c3cnccc3C(F)(F)F)nc2c1 [Compound 277, 5-ethyl-2-(4-(4-(trifluoromethyl)pyridin-3-yl)-4H-1,2,4-triazol-3-yl)-1H-benzo [d]imidazole]",≤ 100 nM
24,"CC(c1cc(F)c2[nH]c(-c3nncn3-c3cnccc3C(F)(F)F)nc2c1)C(F)(F)F (stereo not drawn) [Compound 278, 7-fluoro-2-(4-(4-(trifluoromethyl)pyridin-3-yl)-4H-1,2,4-triazol-3-yl)-5-(1,1,1-trifluoropropan-2-yl)-1H-benzo[d]imidazole]",≤ 100 nM
25,"Cn1ccc(C(F)(F)F)c(-n2cnnc2-c2nc3cc(C(F)(F)F)ccc3[nH]2)c1=O [Compound 279, 1-methyl-4-(trifluoromethyl)-3-(3-(5-(trifluoromethyl)-1H-benzo[d]imidazol-2-yl)-4H-1,2,4-triazol-4-yl)pyridin-2(1H)-one]",> 1000 nM
26,"O=c1ccc(C(F)(F)F)c(-n2cnnc2-c2nc3cc(C(F)(F)F)ccc3[nH]2)[nH]1 [Compound 280, 5-(trifluoromethyl)-6-(3-(5-(trifluoromethyl)-1H-benzo[d]imidazol-2-yl)-4H-1,2,4-triazol-4-yl)pyridin-2(1H)-one]",≤ 100 nM
27,"FC(F)(F)Oc1ccc(Oc2ncco2)cc1-n1cnnc1-c1nc2cc(C(F)(F)F)ccc2[nH]1 [Compound 281, 2-(4-(trifluoromethoxy)-3-(3-(5-(trifluoromethyl)-1H-benzo[d]imidazol-2-yl)-4H-1,2,4-triazol-4-yl)phenoxy)oxazole]",≤ 100 nM
28,"Fc1cc(CC(F)(F)F)cc2nc(-c3nncn3-c3cnccc3C(F)(F)F)[nH]c12 [Compound 282, 7-fluoro-5-(2,2,2-trifluoroethyl)-2-(4-(4-(trifluoromethyl)pyridin-3-yl)-4H-1,2,4-triazol-3-yl)-1H-benzo[d]imidazole]",≤ 100 nM
29,"CS(=O)(=O)Cc1nnc(-c2nc3cc(C4CC4)cc(F)c3[nH]2)n1-c1cnccc1C(F)(F)F [Compound 283, 5-cyclopropyl-7-fluoro-2-(5-((methylsulfonyl)methyl)-4-(4-(trifluoromethyl)pyridin-3-yl)-4H-1,2,4-triazol-3-yl)-1H-benzo[d]imidazole]",≤ 100 nM
30,"Cn1c(-n2cnnc2-c2nc3cc(C(F)(F)F)ccc3[nH]2)c(C(F)(F)F)ccc1=O [Compound 284, 1-methyl-5-(trifluoromethyl)-6-(3-(5-(trifluoromethyl)-1H-benzo[d]imidazol-2-yl)-4H-1,2,4-triazol-4-yl)pyridin-2(1H)-one]",≤ 100 nM
